According to publication PMC4728661, “Cancer Prevention and Health Benefices of Traditionally Consumed Borago officinalis Plants” (Nutrients, 2016):
“And” between values parts separate entries of the source, which are not always exact repeats. Equal values may be shown once. Marks after values point to notes of the source that are not given here.

What was measured:
D. melanogaster [1] = experiment: Toxicity: survival of Drosophila larvae to emerged adults, simple and combined (H2O2) treatments; format: in vivo, Drosophila melanogaster
Method: Optimal fertile flies were anesthetized under CO2 narcotisation for cross selection and then placed in new vials for fertilization. After that, hybrid eggs from crossing were collected over an 8 h period and emerged larvae (72 ± 4 h later) were cleaned up for a few seconds in sterile distilled water to remove feeding medium rests. […] Bioactive compound concentrations were chosen on the basis of their known content in B. officinalis species. […] Larvae were fed on these media until pupation (about 48 h). After emergence, resulting adult flies were sacrificed under CO2 narcotisation and stored in a 70% ethanol solution in sterile water. […] The determination of Toxicity (T) of treatments in D. melanogaster was performed following this formula [39]: T = (N° of emerging individuals in treatment/N° of emerging individuals in the negative control) × 100(1) Differences in D. melanogaster survival between treatments at each concentration with respect to negative control were analyzed with a Chi-square test. This procedure was also performed for the analysis of each simple treatment with their correspondent combined treatment.

D. melanogaster [2] = experiment: Antigenotoxicity: SMART, combined treatments with H2O2 0.12 M; format: in vivo, Drosophila melanogaster; as to Diagnosis, Large Single Spots >2 Cells m = 5: key: + (positive); − (negative); as to Diagnosis, Small Single Spots 1–2 Cells m = 2: key: + (positive); − (negative); as to Diagnosis, Total Spots m = 2: key: + (positive); − (negative); as to Diagnosis, Twin Spots m = 5: key: + (positive); − (negative)
Method: The D. melanogaster system was selected for the determination of the safety of B. officinalis consumption as a well-recognized method to analyze vegetable complex mixtures using SMART [31, 32]. This test was used in order to evaluate the genotoxic and antigenotoxic activity of B. officinalis leaves and petioles as well as their selected bioactive compounds [33]. This activity was measured by direct visualization of the occurrence of recessive mutations in the wing hairs of two different D. melanogaster strains. Flies from experiments carried these visible wing genetic markers: the flare (flr) strain […]) TM3, Bd^s and the multiple wing-hair (mwh) strain […] [35]. The marker flare (flr^3, 3_38.3) produces individual malformed hairs and the marker multiple wing hairs (mwh, 3_0.3) produces multiple hairs per cell. Larvae used in treatments come from two types of crosses: the standard cross with flr^3/TM3, Bd^S females mated to […] and the reciprocal cross. Optimal fertile flies were anesthetized under CO2 narcotisation for cross selection and then placed in new vials for fertilization. After that, hybrid eggs from crossing were collected over an 8 h period and emerged larvae (72 ± 4 h later) were cleaned up for a few seconds in sterile distilled water to remove feeding medium rests. […] Bioactive compound concentrations were chosen on the basis of their known content in B. officinalis species. […] Larvae were fed on these media until pupation (about 48 h). After emergence, resulting adult flies were sacrificed under CO2 narcotisation and stored in a 70% ethanol solution in sterile water. […] For the evaluation of genotoxic effects, the frequencies of spots per fly of each treated series were compared to the concurrent negative control for each class of mutational clone as well as between simple and combined treatments for the same concentration comparisons. […] A multiple-decision procedure was used to categorize results as positive, inconclusive or negative. Inconclusive and positive results were evaluated by the non-parametric U test of Mann, Whitney and Wilcoxon. The inhibition percentage (IP) of genotoxicity was calculated from the total frequencies of spots per wing, following this formula [42]: IP = (genotoxin alone - sample + genotoxin) × 100/(genotoxin alone)(2) Significant differences of IP for each treatment respect to the positive control were analyzed with a Chi-square test.

HL-60 cells = experiment: Cytotoxicity: HL-60 growth/viability, Trypan Blue dye exclusion; format: cell-based, human; conditions: 72 h
Method: The human acute promyelocytic leukemia cell line HL-60 was routinely grown in suspension in RPMI medium (Invitrogen, Madrid, Spain) containing glutamine ([…], Sigma-Aldrich, St. Louis, MO, USA), antibiotics (100IU penicillin mL^−1 and 100 μg streptomycin mL^−1, Sigma-Aldrich) and supplemented with 10% heat-inactivated foetal bovine serum (Linus, Cultek, Madrid, Spain) and placed in an incubator (Shel Lab, Cornelious, OR, USA) with a 5% CO2 humidified atmosphere at 37 °C [36]. HL-60 cells were subcultured every 2–3 days to maintain logarithmic growth and they were allowed to grow for 48 h before use. Cultures were plated at a density of 12.5 × 10^4 cells mL^−1 in 40 mL culture flasks (25 cm^2). Cytotoxic activity was measured as growing inhibition or decreased viability on HL-60 cells following a previous protocol modified by us. […] Cells were counted after 72 h treatment. Tested concentrations were calculated according to those used for in vivo assays to equal the range of tested doses. Untreated cultures were used as negative control. Cell viability was determined by the Trypan Blue dye exclusion test. Cells were stained with an equal volume of Trypan Blue commercial solution (Sigma-Aldrich) and counted using a hemocytometer at room temperature under a light inverted microscope (AE30/31, Motic, Barcelona, Spain). Cytotoxic effect evaluation was determined after each culture incubation period, establishing a growth curve and determining IC50 values by regression analysis of the curves. Viability estimated regressions of leukemia cells are presented as a survival percentage with respect to controls at 72 h growth and plotted as mean viability ± standard error of at least three independent replicas for each treatment and concentration.

[3] = combined with 0.12 M H2O2, 0.35 mM RO
[4] = combined with 0.12 M H2O2, 0.7 mM RO
[5] = combined with 0.12 M H2O2, 1.39 mM RO
[6] = combined with 0.12 M H2O2, 2.78 mM RO
[7] = combined with 0.12 M H2O2, 0.15 mM SI
[8] = combined with 0.12 M H2O2, 0.29 mM SI
[9] = combined with 0.12 M H2O2, 0.58 mM SI
[10] = combined with 0.12 M H2O2, 1.16 mM SI

O=C(/C=C/c1ccc(O)c(O)c1)O[C@H](Cc1ccc(O)c(O)c1)C(=O)O [RO, rosmarinic acid] was tested, and the “Survival average in combined treatments” value (D. melanogaster [1]; average of the four concentrations, combined with 0.12 M H2O2) was 41.28, the Survival (D. melanogaster [1]; [3]) was 49.56 * % and the Survival (D. melanogaster [1]; [4]) was 31.11 *^,‡ %. The Survival (D. melanogaster [1]; [5]) was 45.56 *^,‡ %, the Survival (D. melanogaster [1]; [6]) was 38.89 *^,‡ % and the Survival (D. melanogaster [1]; simple treatment, 0.35 mM RO) was 48.44 * %. For the same molecule, the Survival (D. melanogaster [1]; simple treatment, 0.7 mM RO) was 22.22 * %, the Survival (D. melanogaster [1]; simple treatment, 1.39 mM RO) was 33.33 * % and the Survival (D. melanogaster [1]; simple treatment, 2.78 mM RO) was 21.33% and 21.33 * %. The “Diagnosis, Small Single Spots 1–2 Cells m = 2” value (D. melanogaster [2]; [3]) was “−”, the “Diagnosis, Total Spots m = 2” value (D. melanogaster [2]; [3]) was “−” and the “Mutation rate, Large Single Spots >2 Cells m = 5” value (D. melanogaster [2]; [3]) was 0 spots/wing. For the same molecule, the “Mutation rate, Small Single Spots 1–2 Cells m = 2” value (D. melanogaster [2]; [3]) was 0.17 (5) spots/wing, the “Mutation rate, Total Spots m = 2” value (D. melanogaster [2]; [3]) was 0.17 (5) spots/wing and the “Mutation rate, Twin Spots m = 5” value (D. melanogaster [2]; [3]) was 0 spots/wing. The “Diagnosis, Large Single Spots >2 Cells m = 5” value (D. melanogaster [2]; [4]) was “−”, the “Diagnosis, Small Single Spots 1–2 Cells m = 2” value (D. melanogaster [2]; [4]) was “−” and the “Diagnosis, Total Spots m = 2” value (D. melanogaster [2]; [4]) was “−”. The “Diagnosis, Twin Spots m = 5” value (D. melanogaster [2]; [4]) was “−”, the “Mutation rate, Large Single Spots >2 Cells m = 5” value (D. melanogaster [2]; [4]) was 0.08 (3) spots/wing and the “Mutation rate, Small Single Spots 1–2 Cells m = 2” value (D. melanogaster [2]; [4]) was 0.35 (14) spots/wing. For the same molecule, the “Mutation rate, Total Spots m = 2” value (D. melanogaster [2]; [4]) was 0.45 (18) spots/wing, the “Mutation rate, Twin Spots m = 5” value (D. melanogaster [2]; [4]) was 0.03 (1) spots/wing and the “Diagnosis, Large Single Spots >2 Cells m = 5” value (D. melanogaster [2]; [5]) was “−”. The “Diagnosis, Small Single Spots 1–2 Cells m = 2” value (D. melanogaster [2]; [5]) was “−”, the “Diagnosis, Total Spots m = 2” value (D. melanogaster [2]; [5]) was “−” and the “Mutation rate, Large Single Spots >2 Cells m = 5” value (D. melanogaster [2]; [5]) was 0.14 (3) spots/wing. For the same molecule, the “Mutation rate, Small Single Spots 1–2 Cells m = 2” value (D. melanogaster [2]; [5]) was 0.14 (3) spots/wing, the “Mutation rate, Total Spots m = 2” value (D. melanogaster [2]; [5]) was 0.27 (6) spots/wing and the “Mutation rate, Twin Spots m = 5” value (D. melanogaster [2]; [5]) was 0 spots/wing. For the same molecule, the “Diagnosis, Small Single Spots 1–2 Cells m = 2” value (D. melanogaster [2]; [6]) was “−”, the “Diagnosis, Total Spots m = 2” value (D. melanogaster [2]; [6]) was “−” and the “Diagnosis, Twin Spots m = 5” value (D. melanogaster [2]; [6]) was “−”. For the same molecule, the “Mutation rate, Large Single Spots >2 Cells m = 5” value (D. melanogaster [2]; [6]) was 0 spots/wing, the “Mutation rate, Small Single Spots 1–2 Cells m = 2” value (D. melanogaster [2]; [6]) was 0.21 (11) spots/wing and the “Mutation rate, Total Spots m = 2” value (D. melanogaster [2]; [6]) was 0.25 (13) spots/wing. For the same molecule, the “Mutation rate, Twin Spots m = 5” value (D. melanogaster [2]; [6]) was 0.04 (2) spots/wing and the “Viable HL-60 cells” value (HL-60 cells; RO (alone or in the mixture) at concentrations over 0.55 mM) was “no viable cells could be detected”.

For COc1cc(/C=C/C(=O)O)cc(OC)c1O [SI, sinapic acid], the Survival (D. melanogaster [1]; [7]) was 64 *^,‡ %, the Survival (D. melanogaster [1]; [8]) was 58.89 * % and the Survival (D. melanogaster [1]; [9]) was 39.78 *^,‡ %. The Survival (D. melanogaster [1]; [10]) was 43.56 *^,‡ %, the Survival (D. melanogaster [1]; simple treatment, 0.15 mM SI) was 78.22 * % and the Survival (D. melanogaster [1]; simple treatment, 0.29 mM SI) was 60.22 * %. For the same molecule, the Survival (D. melanogaster [1]; simple treatment, 0.58 mM SI) was 69.33 * %, the Survival (D. melanogaster [1]; simple treatment, 1.16 mM SI) was 55.11 * % and the “Diagnosis, Small Single Spots 1–2 Cells m = 2” value (D. melanogaster [2]; [7]) was “−”. For the same molecule, the “Diagnosis, Total Spots m = 2” value (D. melanogaster [2]; [7]) was “−”, the “Mutation rate, Large Single Spots >2 Cells m = 5” value (D. melanogaster [2]; [7]) was 0 spots/wing and the “Mutation rate, Small Single Spots 1–2 Cells m = 2” value (D. melanogaster [2]; [7]) was 0.42 (5) spots/wing. The “Mutation rate, Total Spots m = 2” value (D. melanogaster [2]; [7]) was 0.42 (5) spots/wing, the “Mutation rate, Twin Spots m = 5” value (D. melanogaster [2]; [7]) was 0 spots/wing and the “Diagnosis, Small Single Spots 1–2 Cells m = 2” value (D. melanogaster [2]; [8]) was “−”. For the same molecule, the “Diagnosis, Total Spots m = 2” value (D. melanogaster [2]; [8]) was “−”, the “Mutation rate, Large Single Spots >2 Cells m = 5” value (D. melanogaster [2]; [8]) was 0 spots/wing and the “Mutation rate, Small Single Spots 1–2 Cells m = 2” value (D. melanogaster [2]; [8]) was 0.25 (2) spots/wing. The “Mutation rate, Total Spots m = 2” value (D. melanogaster [2]; [8]) was 0.25 (2) spots/wing, the “Mutation rate, Twin Spots m = 5” value (D. melanogaster [2]; [8]) was 0 spots/wing and the “Diagnosis, Large Single Spots >2 Cells m = 5” value (D. melanogaster [2]; [9]) was “−”. The “Diagnosis, Small Single Spots 1–2 Cells m = 2” value (D. melanogaster [2]; [9]) was “−”, the “Diagnosis, Total Spots m = 2” value (D. melanogaster [2]; [9]) was “−” and the “Diagnosis, Twin Spots m = 5” value (D. melanogaster [2]; [9]) was “−”. The “Mutation rate, Large Single Spots >2 Cells m = 5” value (D. melanogaster [2]; [9]) was 0.09 (2) spots/wing, the “Mutation rate, Small Single Spots 1–2 Cells m = 2” value (D. melanogaster [2]; [9]) was 0.27 (6) spots/wing and the “Mutation rate, Total Spots m = 2” value (D. melanogaster [2]; [9]) was 0.41 (9) spots/wing. The “Mutation rate, Twin Spots m = 5” value (D. melanogaster [2]; [9]) was 0.05 (1) spots/wing, the “Diagnosis, Large Single Spots >2 Cells m = 5” value (D. melanogaster [2]; [10]) was “−” and the “Diagnosis, Small Single Spots 1–2 Cells m = 2” value (D. melanogaster [2]; [10]) was “−”. For the same molecule, the “Diagnosis, Total Spots m = 2” value (D. melanogaster [2]; [10]) was “−”, the “Mutation rate, Large Single Spots >2 Cells m = 5” value (D. melanogaster [2]; [10]) was 0.04 (1) spots/wing and the “Mutation rate, Small Single Spots 1–2 Cells m = 2” value (D. melanogaster [2]; [10]) was 0.25 (7) spots/wing. For the same molecule, the “Mutation rate, Total Spots m = 2” value (D. melanogaster [2]; [10]) was 0.29 (8) spots/wing, the “Mutation rate, Twin Spots m = 5” value (D. melanogaster [2]; [10]) was 0 spots/wing and the “Effect on HL-60 growth” value (HL-60 cells; 0.03–1 mM) was “did not affect HL-60 growth”.
